Test results taken from PMC4476580, “Novel Broad Spectrum Inhibitors Targeting the Flavivirus Methyltransferase” (PLoS ONE, 2015).
pEC50, pIC50: −log10 of the molar value. Where two headings read alike, the source gives them in different places.

Experiments:
WNV MTase [1] = molecular target: T1, WNV MTase (West Nile virus, UniProt Q9Q6P4); assay: biochemical; assay type: biochemical
T1 construct: containing the N-terminal 300, 266, 265, and 272 amino acids of NS5 protein, respectively; made in house
T1 sequence (Q9Q6P4 2529-2794 limits assumed): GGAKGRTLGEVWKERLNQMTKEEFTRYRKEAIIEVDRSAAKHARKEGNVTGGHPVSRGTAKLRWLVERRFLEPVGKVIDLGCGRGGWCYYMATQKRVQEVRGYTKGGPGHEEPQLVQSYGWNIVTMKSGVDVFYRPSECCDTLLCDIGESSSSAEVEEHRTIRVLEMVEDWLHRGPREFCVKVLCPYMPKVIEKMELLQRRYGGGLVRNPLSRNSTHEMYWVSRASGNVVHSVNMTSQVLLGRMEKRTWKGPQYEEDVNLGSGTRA

WNV MTase [2] = molecular target: T1, WNV MTase; assay: biochemical
[3] = MTT cell proliferation cytotoxicity assay; assay type: cell-based; details: hamster; BHK-21 cells, MTT, 42 hours
Description: (§1) Cell-based assays were next performed to evaluate the biological activities of the selected compounds. The cytotoxicity of these compounds was first evaluated by using a MTT cell proliferation assay with a BHK-21 cell line (Table 1, fig 5), as we described previously. […] Therefore, these compounds were further investigated for their in vitro antiviral efficacy.
(§2) Cytotoxicity was measured using BHK-21 cells by a MTT cell proliferation assay using the 3-(4,5-dimethylthiazol-2-yl)-2,5-diphenyl tetrazolium bromide method (ATCC), as described previously.

BHK-21 cells = assay: MTT cell proliferation cytotoxicity assay; assay type: cell-based; details: for CC50 values times higher than IC50 values: BHK-21 CC50 versus in vitro IC50; for CC50: BHK-21 cells, MTT, 42 hours
Description: as §1, §2

WNV = assay: Viral titer reduction assay; details: for Inhibition of the WNV titer: highest concentration tested (200 μM)
DENV2 MTase [4] = molecular target: T2, DENV2 MTase (Dengue virus type 2, UniProt P14340); assay type: biochemical; details: read-out: IC50 N7
T2 construct: containing the N-terminal 300, 266, 265, and 272 amino acids of NS5 protein, respectively; made in house
T2 sequence (P14340 2493-2755 limits assumed): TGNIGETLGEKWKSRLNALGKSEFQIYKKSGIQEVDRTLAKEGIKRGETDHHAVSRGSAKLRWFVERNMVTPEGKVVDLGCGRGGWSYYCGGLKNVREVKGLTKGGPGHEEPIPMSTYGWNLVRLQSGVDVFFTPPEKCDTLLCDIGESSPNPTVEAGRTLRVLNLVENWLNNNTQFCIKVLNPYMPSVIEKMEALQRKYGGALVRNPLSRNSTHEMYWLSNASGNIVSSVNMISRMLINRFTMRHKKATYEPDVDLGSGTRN

DENV2 MTase [5] = molecular target: T2, DENV2 MTase; assay type: biochemical; details: read-out: IC50 2’-O
DENV3 MTase [6] = molecular target: T3, DENV3 MTase (Dengue virus type 3, UniProt Q6YMS4); assay type: biochemical; details: read-out: IC50 N7
T3 construct: containing the N-terminal 300, 266, 265, and 272 amino acids of NS5 protein, respectively; made in house
T3 sequence (Q6YMS4 2492-2753): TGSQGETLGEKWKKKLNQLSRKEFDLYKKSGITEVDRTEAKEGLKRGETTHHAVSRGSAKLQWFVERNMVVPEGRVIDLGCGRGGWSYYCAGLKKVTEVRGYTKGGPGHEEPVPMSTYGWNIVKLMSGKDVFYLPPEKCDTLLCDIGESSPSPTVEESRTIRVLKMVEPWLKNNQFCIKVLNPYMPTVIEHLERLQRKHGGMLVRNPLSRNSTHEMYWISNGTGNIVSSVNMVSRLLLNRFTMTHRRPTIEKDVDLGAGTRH

DENV3 MTase [7] = molecular target: T3, DENV3 MTase; assay type: biochemical; details: read-out: IC50 2’-O
YFV MTase [8] = molecular target: T4, YFV MTase (Yellow fever virus, UniProt P03314); assay type: biochemical; details: read-out: IC50 N7
T4 sequence (P03314 2507-2771 limits assumed): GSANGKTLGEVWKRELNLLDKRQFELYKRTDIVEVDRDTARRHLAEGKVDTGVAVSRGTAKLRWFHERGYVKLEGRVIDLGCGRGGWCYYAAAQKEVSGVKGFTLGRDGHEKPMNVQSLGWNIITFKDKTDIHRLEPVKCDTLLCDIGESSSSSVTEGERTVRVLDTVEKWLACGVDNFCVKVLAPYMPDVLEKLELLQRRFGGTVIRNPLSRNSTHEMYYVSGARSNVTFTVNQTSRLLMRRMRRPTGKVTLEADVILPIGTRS

YFV MTase [9] = molecular target: T4, YFV MTase; assay type: biochemical; details: read-out: IC50 2’-O

Compound | pIC50 (WNV MTase [1]; IC50 N7 No CHAPS) | pIC50 (WNV MTase [1]; IC50 N7 with CHAPS) | pIC50 (WNV MTase [2]) | CC50 at 42 h [3] [µM] | CC50 values times higher than IC50 values (BHK-21 cells) | pIC50 (WNV MTase [1]; read-out: IC50 N7 No CHAPS) | pIC50 (WNV MTase [2]; read-out: IC50 2’-O with CHAPS) | other results
O=C1CN2CCN(CC2)CC(=O)Nc2ccc(cc2)S(=O)(=O)c2ccc(cc2)NC(=O)CN2CCN(CC2)CC(=O)Nc2ccc(cc2)S(=O)(=O)c2ccc(cc2)N1 [NSC 36806] | 4.41 | 4.45 | < 3.52 | 362 | ~10 | – | – | pEC50 (WNV; West Nile virus, 42 h): < 3.70; Inhibition of the WNV titer (WNV): did not inhibit the WNV titer
O=C1c2cc([N+](=O)[O-])ccc2-c2ccc3c4ccc5c6c(ccc(c7ccc1c2c73)c64)C(=O)c1cc([N+](=O)[O-])ccc1-5 [NSC 51535] | – | – | – | 5.7 | – | 5.41 | 5.25 | –
O=C1c2ccccc2C(=O)c2c1ccc(N1C(=O)c3ccccc3C1=O)c2-c1c(N2C(=O)c3ccccc3C2=O)ccc2c1C(=O)c1ccccc1C2=O [NSC 115448] | 4.80 | 3.65 | 4.78 | 155 | – | – | – | –
O=c1c2ccccc2c2ccccc2c(=O)n1-c1cc2c3ccccc3ccc2c2ccccc12 [NSC 128609] | 4.40 | – | 4.00 | 192 | – | – | – | –
COc1ccc2cc1Oc1ccc(cc1)CC1c3c(cc(OC)c4c3Oc3cc5c(cc3O4)CCNC5C2)CCN1C (stereo not drawn) [NSC 181486] | 4.59 | 4.46 | < 3.52 | 4.8 | – | – | – | –
Cc1ccc(NC(=O)c2cc3ccccc3cc2O)c(C)c1.Cc1ccc(NC(=O)c2cc3ccccc3cc2O)c(C)c1.[Ni] [NSC 306698] | – | – | – | – | – | 4.35 | 4.31 | CC50 (BHK-21 cells): 32 µM
Cc1nn(-c2ccc(S(=O)(=O)[O-])cc2)c([O-])c1N=Nc1ccc(-c2ccc(N=Nc3ccc4c(S(=O)(=O)[O-])cc(S(=O)(=O)[O-])c(N)c4c3[O-])c([O-])c2)cc1[O-].[Cu+2].[Cu+2].[H+].[H+].[H+] [NSC 306711] | – | – | – | – | ~10 | 6.06 | 5.37 | pIC50 (WNV MTase [1]; read-out: IC50 N7 with CHAPS): 5.64; CC50 (BHK-21 cells): 332 µM; pIC50 (DENV2 MTase [4]): 5.28; pIC50 (DENV2 MTase [5]): 5.16; pIC50 (DENV3 MTase [6]): 4.44; pIC50 (DENV3 MTase [7]): 5.33; pIC50 (YFV MTase [8]): 5.92; pIC50 (YFV MTase [9]): 5.96; pEC50 (WNV; BHK cells infected with WNV, MOI 0.1, 42 hours post-infection, plaque assay on Vero cells): 6.00
CN1CCN(c2ccc3[nH]c(-c4ccc5[nH]c(-c6ccc(O)cc6)nc5c4)nc3c2)CC1 [NSC 322921] | 4.52 | 4.58 | < 3.52 | > 500 | ~10 | – | – | pEC50 (WNV; West Nile virus, 42 h): < 3.70; Inhibition of the WNV titer (WNV): did not inhibit the WNV titer
Ic1ccc2c(c1)N(c1ccccc1)c1cc(Nc3ccc4c(c3)N(c3ccccc3)c3cc(I)ccc3N4)ccc1N2 [NSC 402959] | – | – | – | 14.6 | – | 5.01 | 5.21 | pIC50 (WNV MTase [1]; read-out: IC50 N7 with CHAPS): 4.51
CC1=C(Nc2c(C)cc(O)cc2O)C(=O)C=c2oc3c(c21)C(C)=C(Nc1c(C)cc(O)cc1O)C(=O)C=3 [NSC 610930] | 5.38 | 4.74 | 5.25 | 117 | ~10 | – | – | pEC50 (WNV; West Nile virus, 42 h): 4.90
Nc1ncnc2c1ncn2[C@@H]1O[C@H](C[C@@H](N)CC[C@H](N)C(=O)O)[C@@H](O)[C@H]1O [SIN, sinefungin, reference compound] | – | – | – | – | – | – | – | Inhibition of the N7 activity of the WNV MTase (WNV MTase [1]): ~ 80%
